{"source": "ChEMBL document CHEMBL1123008", "about": "“Synthesis and antinociceptive activity of 4-(cyclopropylmethyl)-3,4,5,6-tetrahydro-2H-1,5-methano-1, 4-benzodiazocin-9-amine and congeners” (1985)", "assay_type_in_all_cases": "functional", "key": {"[1]": {"test_system": "Rattus norvegicus", "experiment": "In vivo narcotic antagonist activity in rat after subcutaneous administration at 60 mg/kg & lethal at 120 mg/kg"}, "[2]": {"test_system": "Rattus norvegicus", "experiment": "In vivo narcotic antagonist activity by rat phenazocine antagonism test through subcutaneous administration"}, "[3]": {"test_system": "Mus musculus", "experiment": "Analgesic agonist activity by mouse acetylcholine writhing test through subcutaneous administration", "details": "sc"}, "[4]": {"test_system": "Rattus norvegicus", "experiment": "In vivo narcotic antagonist activity in rat after subcutaneous administration at 80 mg/kg", "details": "sc"}, "[5]": {"test_system": "Mus musculus", "experiment": "Maximum analgesic agonist activity obtained by mouse acetylcholine writhing test through subcutaneous administration at 75 mg/kg", "details": "sc"}, "[6]": {"test_system": "Rattus norvegicus", "experiment": "In vivo narcotic antagonist activity by AD50 vs. meperidine through oral administration"}, "[7]": {"test_system": "Rattus norvegicus", "experiment": "In vivo narcotic antagonist activity in rat after oral administration of the compound"}, "[8]": {"test_system": "Rattus norvegicus", "experiment": "Analgesic agonist activity by rat tail-flick test through oral administration; Inactive at 200 mg/kg"}, "[9]": {"test_system": "Rattus norvegicus", "experiment": "In vivo narcotic antagonist activity by AD50 vs. morphine through subcutaneous administration"}, "[10]": {"test_system": "Rattus norvegicus", "experiment": "In vivo narcotic antagonist activity by AD50 vs. meperidine through subcutaneous administration"}, "[11]": {"test_system": "Rattus norvegicus", "experiment": "In vivo narcotic antagonist activity by AD50 vs. morphine through oral administration"}, "[12]": {"test_system": "Rattus norvegicus", "experiment": "In vivo narcotic antagonist activity by rat phenylquinone test through oral administration"}, "[13]": {"test_system": "Rattus norvegicus", "experiment": "Analgesic agonist activity by rat tail-flick test through subcutaneous administration; Inactive at 120 mg/kg", "details": "sc"}, "[14]": {"test_system": "Rattus norvegicus", "experiment": "In vivo narcotic antagonist activity by rat phenylquinone test through subcutaneous administration", "details": "sc"}, "[15]": {"test_system": "Rattus norvegicus", "experiment": "In vivo narcotic antagonist activity in rat after subcutaneous administration of the compound"}, "[16]": {"species_on_record": "Rattus norvegicus", "experiment": "animal or person", "details": "in Mus musculus, sc"}, "[17]": {"test_system": "Rattus norvegicus", "experiment": "In vivo narcotic antagonist activity by rat phenazocine antagonism test through subcutaneous administration at 10 mg/kg"}, "[18]": {"test_system": "Rattus norvegicus", "experiment": "In vivo narcotic antagonist activity in rat after subcutaneous administration at 10 mg/kg & convulsions at 20 mg/kg", "details": "sc"}, "[19]": {"test_system": "Rattus norvegicus", "experiment": "Analgesic agonist activity by rat intracarotid bradykinin writhing test through subcutaneous administration", "details": "sc"}, "[20]": {"test_system": "Rattus norvegicus", "experiment": "In vivo narcotic antagonist activity by rat phenazocine antagonism test through oral administration"}}}
{"smiles": "CCNc1ccc2c(c1)N1CCN(CC3CC3)C(C2)C1.Cl", "note": "(stereo not given)", "values": [{"measurement": "Inhibition", "setting": "[1]", "value": 17, "unit": "%"}, {"measurement": "AD50", "setting": "[2]", "value": 4.4, "unit": "mg/kg"}]}
{"smiles": "Nc1ccc2c(c1)N1CCN(CC3CC3)[C@@H](C2)C1", "values": [{"measurement": "ED50", "setting": "[3]", "value": 40, "unit": "mg/kg"}, {"measurement": "inhibition in vivo at 80 mg/kg", "setting": "[4]", "value": 25, "unit": "%"}, {"measurement": "inhibition in vivo at 75 mg/kg", "setting": "[5]", "value": 67, "unit": "%"}]}
{"smiles": "Nc1ccc2c(c1)N1CCN(CC3CC3)C(C2)C1", "note": "(stereo not given)", "values": [{"measurement": "AD50", "setting": "[6]", "value": 4.8, "unit": "mg/kg"}, {"measurement": "AD50", "setting": "[7]", "value": 3.5, "unit": "mg/kg"}, {"measurement": "ED50", "setting": "[8]", "value": 1, "unit": "mg/kg"}, {"measurement": "AD50", "setting": "[9]", "value": 8.6, "unit": "mg/kg"}, {"measurement": "AD50", "setting": "[10]", "value": 3.3, "unit": "mg/kg"}, {"measurement": "AD50", "setting": "[2]", "value": 1.6, "unit": "mg/kg"}, {"measurement": "AD50", "setting": "[11]", "value": 13, "unit": "mg/kg"}, {"measurement": "ED50", "setting": "[12]", "value": 5.7, "unit": "mg/kg"}, {"measurement": "ED50", "setting": "[13]", "value": 1, "unit": "mg/kg"}, {"measurement": "ED50", "setting": "[14]", "value": 1.8, "unit": "mg/kg"}]}
{"smiles": "C=CCN1CCN2CC1Cc1ccc(N)cc12.CCS(=O)(=O)O", "note": "(stereo not given)", "values": [{"measurement": "AD50", "setting": "[15]", "value": 1.6, "unit": "mg/kg"}]}
{"smiles": "CCS(=O)(=O)O.c1ccc2c(c1)CC1CN2CCN1CC1CC1", "note": "(stereo not given)", "values": [{"measurement": "AD50", "setting": "[15]", "value": 34, "unit": "mg/kg"}, {"measurement": "ED50", "setting": "[13]", "value": 1, "unit": "mg/kg"}]}
{"smiles": "CN1CC[C@]23c4c5ccc(O)c4O[C@H]2[C@@H](O)C=C[C@H]3[C@H]1C5.CN1CC[C@]23c4c5ccc(O)c4O[C@H]2[C@@H](O)C=C[C@H]3[C@H]1C5.O=S(=O)(O)O", "values": [{"measurement": "ED50", "setting": "[16]", "value": 0.21, "unit": "mg/kg"}]}
{"smiles": "CCCCNc1ccc2c(c1)N1CCN(CC3CC3)C(C2)C1", "note": "(stereo not given)", "values": [{"measurement": "AD50", "setting": "[17]", "value": 1, "unit": "mg/kg"}, {"measurement": "ED50", "setting": "[18]", "value": 1, "unit": "mg/kg"}]}
{"smiles": "Oc1ccc2c(c1)N1CCN(CC3CC3)C(C2)C1", "note": "(stereo not given)", "values": [{"measurement": "ED50", "setting": "[19]", "value": 37, "unit": "mg/kg"}, {"measurement": "ED50", "setting": "[3]", "value": 10, "unit": "mg/kg"}, {"measurement": "AD50", "setting": "[2]", "value": 0.02, "unit": "mg/kg"}, {"measurement": "AD50", "setting": "[20]", "value": 3.2, "unit": "mg/kg"}]}
{"smiles": "Nc1ccc2c(c1)N1CCN(CC3CC3)[C@H](C2)C1", "values": [{"measurement": "ED50", "setting": "[3]", "value": 1, "unit": "mg/kg"}, {"measurement": "AD50", "setting": "[15]", "value": 0.31, "unit": "mg/kg"}]}
{"smiles": "C=CCN1CC[C@]23c4c5ccc(O)c4O[C@H]2[C@@H](O)C=C[C@H]3[C@H]1C5.Cl", "note": "[NALORPHINE HYDROCHLORIDE]", "values": [{"measurement": "ED50", "setting": "[19]", "value": 0.24, "unit": "mg/kg"}, {"measurement": "AD50", "setting": "[15]", "value": 0.032, "unit": "mg/kg"}, {"measurement": "ED50", "setting": "[16]", "value": 2.8, "unit": "mg/kg"}]}
